Calls of active or inactive are those of the source. No cut-off for these calls is given here.
How the values were obtained:
Pichia kudriavzevii [1] = test: Fungicidal activity against Candida krusei ATCC 6258 assessed as fungal growth inhibition incubated for 18 to 24 hrs by alamar blue assay; format: functional
Candida albicans [2] = test: Antifungal activity against Candida albicans ATCC 90028 assessed as fungal growth inhibition incubated for 18 to 24 hrs by alamar blue assay; format: functional
Aspergillus fumigatus [3] = test: Fungicidal activity against Aspergillus fumigatus ATCC 90906 assessed as fungal growth inhibition incubated for 72 hrs by alamar blue assay; format: functional
Nakaseomyces glabratus [4] = test: Antifungal activity against Candida glabrata ATCC 90030 assessed as fungal growth inhibition incubated for 18 to 24 hrs by alamar blue assay; format: functional
Vero = test: Cytotoxicity against African green monkey Vero cells assessed as reduction in cell viability incubated for 48 hrs by neutral red dye based assay; parameters: species or system Chlorocebus sabaeus; settings: Chlorocebus sabaeus, Vero, 48 h
Pichia kudriavzevii [5] = test: Antifungal activity against Candida krusei ATCC 6258 assessed as fungal growth inhibition incubated for 18 to 24 hrs by alamar blue assay; format: functional
Cryptococcus neoformans [6] = test: Fungicidal activity against Cryptococcus neoformans ATCC 90113 assessed as fungal growth inhibition incubated for 72 hrs by alamar blue assay; format: functional
Candida albicans [7] = test: Fungicidal activity against Candida albicans ATCC 90028 assessed as fungal growth inhibition incubated for 18 to 24 hrs by alamar blue assay; format: functional
Nakaseomyces glabratus [8] = test: Fungicidal activity against Candida glabrata ATCC 90030 assessed as fungal growth inhibition incubated for 18 to 24 hrs by alamar blue assay; format: functional
Cryptococcus neoformans [9] = test: Antifungal activity against Cryptococcus neoformans ATCC 90113 assessed as fungal growth inhibition incubated for 72 hrs by alamar blue assay; format: functional
Aspergillus fumigatus [10] = test: Antifungal activity against Aspergillus fumigatus ATCC 90906 assessed as fungal growth inhibition incubated for 72 hrs by alamar blue assay; format: functional
[11] = Pichia kudriavzevii, ATCC 6258, time 18-24 hrs, read-out: MFC
[12] = Candida albicans, ATCC 90028, time 18-24 hrs, read-out: MIC
[13] = Aspergillus fumigatus, ATCC 90906, 72 h, read-out: MFC
[14] = Nakaseomyces glabratus, ATCC 90030, time 18-24 hrs, read-out: MIC
[15] = Pichia kudriavzevii, ATCC 6258, time 18-24 hrs, read-out: MIC
[16] = Cryptococcus neoformans, ATCC 90113, 72 h, read-out: MFC
[17] = Candida albicans, ATCC 90028, time 18-24 hrs, read-out: MFC
[18] = Nakaseomyces glabratus, ATCC 90030, time 18-24 hrs, read-out: MFC
[19] = Cryptococcus neoformans, ATCC 90113, 72 h, read-out: MIC
[20] = Aspergillus fumigatus, ATCC 90906, 72 h, read-out: MIC

| MIC (Candida albicans [2]; [12]) [µM] | MIC (Nakaseomyces glabratus [4]; [14]) [µM] | MIC (Pichia kudriavzevii [5]; [15]) [µM] | MIC (Cryptococcus neoformans [9]; [19]) [µM] | MIC (Aspergillus fumigatus [10]; [20]) [µM] | MIC (Aspergillus fumigatus [10]) | Structure (SMILES) | MFC (Pichia kudriavzevii [1]; [11]) [µM] | MFC (Aspergillus fumigatus [3]; [13]) [µM] | IC50 (Vero) [µM] | MFC (Cryptococcus neoformans [6]; [16]) [µM] | MFC (Candida albicans [7]; [17]) [µM] | MFC (Nakaseomyces glabratus [8]; [18]) [µM] | MFC (Aspergillus fumigatus [3]) | also measured |
| --- | --- | --- | --- | --- | --- | --- | --- | --- | --- | --- | --- | --- | --- | --- |
| – | – | – | 2.4 | – | inactive | CCCCCCCCCCCCCCC1(O)C(C)=C(C)C2=[N+](C)c3ccccc3CN21 (stereo unspecified) | – | – | > 45 | 2.4 | – | – | inactive | MFC (Pichia kudriavzevii [1]; time 18-24 hrs): inactive; MIC (Candida albicans [2]; time 18-24 hrs): inactive; MIC (Nakaseomyces glabratus [4]; time 18-24 hrs): inactive; MIC (Pichia kudriavzevii [5]; time 18-24 hrs): inactive; MFC (Candida albicans [7]; time 18-24 hrs): inactive; MFC (Nakaseomyces glabratus [8]; time 18-24 hrs): inactive |
| 4.3 | 13 | 13 | 6.4 | 35 | – | CCCCCCCCCCCCCCC1(O)c2ccccc2C2=[N+](C)CCCN21 (stereo unspecified) | 13 | 35 | 42 | 6.4 | 4.3 | 16 | – | – |
| 18 | 4.9 | 6.2 | 3.7 | – | inactive | CCCCCCCCCCCCCCC1(O)C(C)=C(C)C2=[N+](CC(=O)c3cccc(Cl)c3)CCCN21 (stereo unspecified) | 6.2 | – | 7.7 | 3.7 | 18 | 4.9 | inactive | – |
| 5.3 | 4 | 1.9 | 1.6 | 4 | – | CCCCCCCCCCCCCCC1(O)C(C)=C(C)C2=[N+](Cc3cc(OC)c(OC)c(OC)c3)CCCN21 (stereo unspecified) | 1.9 | 4 | > 40 | 1.6 | 5.3 | 4 | – | – |
| 3.5 | 3.5 | 2.5 | 1 | 5.2 | – | C=CC[N+]1=C2C(C)=C(C)C(O)(CCCCCCCCCCCCCC)N2CCC1 (stereo unspecified) | 2.5 | 17 | 32 | 4.1 | 4.3 | 5.2 | – | – |

More lines, now with the values behind:

| Structure (SMILES) | MIC (Candida albicans [2]; [12]) [µM] | MIC (Nakaseomyces glabratus [4]; [14]) [µM] | MIC (Pichia kudriavzevii [5]; [15]) [µM] | MIC (Cryptococcus neoformans [9]; [19]) [µM] | MIC (Aspergillus fumigatus [10]; [20]) [µM] | MIC (Aspergillus fumigatus [10]) | MFC (Pichia kudriavzevii [1]; [11]) [µM] | MFC (Aspergillus fumigatus [3]; [13]) [µM] | IC50 (Vero) [µM] | MFC (Cryptococcus neoformans [6]; [16]) [µM] | MFC (Candida albicans [7]; [17]) [µM] | MFC (Nakaseomyces glabratus [8]; [18]) [µM] | MFC (Aspergillus fumigatus [3]) | also measured |
| --- | --- | --- | --- | --- | --- | --- | --- | --- | --- | --- | --- | --- | --- | --- |
| C#CC[N+]1=C2C(C)=C(C)C(O)(CCCCCCCCCCCCCC)N2CCC1 (stereo unspecified) | 5.2 | 5.2 | 2.1 | 1.5 | 5.2 | – | 2.1 | 5.2 | 35 | 2.3 | 5.2 | 5.2 | – | – |
| CCCCCCCCCCCCCCC1(O)C(C)=C(C)C2=[N+](Cc3cnnn3Cc3ccccc3)CCCN21 (stereo unspecified) | 5.4 | 3.4 | 2.8 | 1.3 | 6.8 | – | 2.8 | 6.8 | > 40 | 2 | 6.8 | 4.7 | – | – |
| CCCCCCCCCCCCCCC1(O)C(C)=C(C)C2=[N+](Cc3ccc([N+](=O)[O-])cc3)CCCN21 (stereo unspecified) | 4.3 | 2.1 | 1.7 | 1.4 | 5 | – | 1.7 | 5 | 36 | 1.4 | 4.3 | 2.1 | – | – |
| CCCCCCCCCCCCCCC1(O)C(C)=C(C)C2=[N+](Cc3ccc(C(F)(F)F)cc3)CCCN21 (stereo unspecified) | 5.5 | 2 | 2 | 1 | 17 | – | 2 | 19 | > 42 | 3.5 | 7 | 2 | – | – |
| CCCCCCCCCCCCCCC1(O)C(C)=C(C)C2=[N+](CC(=O)NCCCC)CCCN21 (stereo unspecified) | 7.5 | 5.2 | 3.8 | 1.8 | 7.5 | – | 3.8 | 7.5 | 45 | 1.8 | 10 | 5.9 | – | – |
| CCCCCCCCCCCCCCC1(O)C(C)=C(C)C2=[N+](Cc3ccc4ccccc4c3)CCCN21 (stereo unspecified) | – | – | – | 3.9 | – | inactive | – | – | 42 | 12 | – | – | inactive | MFC (Pichia kudriavzevii [1]; time 18-24 hrs): inactive; MIC (Candida albicans [2]; time 18-24 hrs): inactive; MIC (Nakaseomyces glabratus [4]; time 18-24 hrs): inactive; MIC (Pichia kudriavzevii [5]; time 18-24 hrs): inactive; MFC (Candida albicans [7]; time 18-24 hrs): inactive; MFC (Nakaseomyces glabratus [8]; time 18-24 hrs): inactive |
| CCCCCCCCCCCCCCC1(O)C(C)=C(C)C2=[N+](Cc3ccc(C#N)cc3)CCCN21 (stereo unspecified) | 4.5 | 2.1 | 2.1 | 1.1 | 4.5 | – | 2.1 | 4.5 | 29 | 1.1 | 4.5 | 2.1 | – | – |
| CCCCCCCCCCCCCCC1(O)C(C)=C(C)C2=[N+](C)CCCN21 (stereo unspecified) | 5 | 4.2 | 2 | 0.99 | 5 | – | 2 | 5 | 39 | 2.4 | 6.5 | 5 | – | – |
| CCCCCCCCCCCCCCC1(O)C=CC2=[N+](C)CCCN21 (stereo unspecified) | 5.2 | 1.7 | 2.1 | 0.21 | 4.4 | – | 2.1 | 4.4 | 17 | 0.21 | 5.2 | 1.7 | – | – |
| CCCCCCCCCCCCCCc1c(C)c(C)cn1CCCNCc1ccccc1 | – | – | – | – | – | inactive | – | – | 42 | – | – | – | inactive | MFC (Pichia kudriavzevii [1]; time 18-24 hrs): inactive; MIC (Candida albicans [2]; time 18-24 hrs): inactive; MIC (Nakaseomyces glabratus [4]; time 18-24 hrs): inactive; MIC (Pichia kudriavzevii [5]; time 18-24 hrs): inactive; MFC (Cryptococcus neoformans [6]): inactive; MFC (Candida albicans [7]; time 18-24 hrs): inactive; MFC (Nakaseomyces glabratus [8]; time 18-24 hrs): inactive; MIC (Cryptococcus neoformans [9]): inactive |
| CCCCCCCCCCCCCCC1(O)C(C)=C(C)C2=[N+](CC(=O)NCCOCCOCCOCCNC(=O)CCCC[C@@H]3SC[C@@H]4NC(=O)N[C@@H]43)CCCN21 (stereo partly specified) | – | – | – | 3.7 | – | inactive | – | – | > 28 | 4.5 | – | – | inactive | MFC (Pichia kudriavzevii [1]; time 18-24 hrs): inactive; MIC (Candida albicans [2]; time 18-24 hrs): inactive; MIC (Nakaseomyces glabratus [4]; time 18-24 hrs): inactive; MIC (Pichia kudriavzevii [5]; time 18-24 hrs): inactive; MFC (Candida albicans [7]; time 18-24 hrs): inactive; MFC (Nakaseomyces glabratus [8]; time 18-24 hrs): inactive |
